Experimental data reported in patent US9192589B2, “Chalcones as enhancer of antimicrobial agents” (priority 2009, dated 2015).
In brackets after ≈: the same amount, converted by molar mass. Read-outs that look alike come from different tables or passages of the source.

What was measured:
[1] = system: A. Viscosus biofilm; experiment: Inhibition of single species biofilm formation (BEC50, crystal violet); type: cell-based, Actinomyces viscosus; parameters: unit not given here; conditions: 24 hours; for BEC50 alone: agent alone
Procedure: (§1) Actinomyces viscosus (ATCC#43146) was grown in trypticase soy broth supplemented with 0.6% yeast extract (TSB-YE) at 37° C., static culture. For mixed species assays, the source of bacteria was a continuous culture chemostat inoculated with A. viscosus, Lactobacillus casei (ATCC #334), Streptococcus oxalis (ATCC #35037), Fusobacterium nucleatum (ATCC #10953), and Veilonella parvula (ATCC #17745). This mixed culture was maintained in a specialized complex medium in a continuous culture chemostat at 37° C.
To assess the bioenhancing ability of CK-4, inhibition of single species biofilm formation tests were conducted. Actives of interest were plated in the first column of a sterile 384-well culture plate and serial twofold dilutions were performed across the plate in 0.5× TSB. First generation cultures of A. Viscosus bacteria were grown overnight in TSB-YE. Cultures were diluted to an OD610˜0.2 in 0.5×TSB and plated in the wells containing serial dilutions of actives. Plates were incubated for 24 hours at 37° C. to allow growth and biofilm formation to occur.
Following incubation, supernatants were removed from the plate and remaining biofilms were stained with 0.03% Grain's crystal violet. Stained plates were read on a Perkin Elmer EnVision microplate reader for absorbance at 590 nm.

[2] = system: Streptococcus mutans, Actinomyces viscosus and Fusobacterium nucleatum; experiment: Fold reduction in MIC over the three oral bacteria; type: cell-based; conditions: in combination with CK-4; over S. mutans, A. viscosus and F. nucleatum
Excerpt: (§2) The checkerboard method is the most frequently used method to access the antimicrobial combinations in vitro. The term “checkerboard” refers to the pattern (of tubes or microtiter plate wells) formed by multiple dilutions of two drugs being tested (Eliopoulos G M, Moellering R C. Antimicrobial Combinations, in: Antibiotics in Laboratory Medicine: USA: Williams & Wilkins). In the present study the checkerboard consisted of columns in which each tube (or well) contains the same amount of the standard drug (antibacterial/antifungal/anti-TB/antiviral) being diluted along the x-axis and rows in which each tube (or well) contains the same amount of the potentiator being diluted on the y-axis. As a result each square in the checkerboard (which represents one tube/well or plate) contained a unique combination of the standard drug and potentiator. The concentration range of standard drug in the present study was 64 μg/ml to 0.03 μg/ml, whereas the potentiator was tested in the range of 500 μg/ml to 0.2 μg/ml. This checkerboard technique can be performed with liquid or semisolid (agar) media.
(§3) In the agar method the agar (Mueller Hinton agar, Middlebrook 7H10 agar) was autoclaved and allowed to cool to 55° C. to 50° C. The combination of the standard drug and the potentiator was added to the agar. Serial two fold dilutions of each of standard drug and the potentiator were prepared in appropriate solvents. In order to maintain the desired concentrations of both agar and drugs, and to rule out the effect of solvent, the volume of solvent (containing standard drug or potentiator) added to agar was kept small (i.e. ≦5% of the total volume). After the agar plates have been poured and allowed to dry, the bacteria to be tested were applied to the surface of agar with a replicating device designed to deliver a standard inoculum (approx 10^4 cfu/spot). The plates were incubated at 37° C. for 24 hrs (3 weeks in case of Mycobacterium tuberculosis).
(§4) The above-mentioned checkerboard was also performed with liquid media in a microtiter plate format. This method was used to study the combination of antibacterial/antifungal/antiviral drugs with potentiator.
(§5) Minimum Inhibitory Concentration (MIC) of triclosan alone and in combination with the above mentioned chalcone compound was performed against Streptococcus mutans, Actinomyces viscosus and Fusobacterium nucleatum, using method described in the study design.
Minimum Inhibitory Concentration (MIC) of magnolol alone and in combination with the above mentioned chalcone compound was performed against Streptococcus mutans, Actinomyces viscosus and Fusobacterium nucleatum, using method described in the study design. […]

[3] = system: Actinomyces viscosus; experiment: MIC of antibacterial agents alone and in combination with CK-4; type: cell-based; conditions: A. viscosus
Excerpt: as §2, §3, §4, §5
(§6) Minimum Inhibitory Concentration (MIC) of magnolol alone and in combination with the above mentioned chalcone compound was performed against Streptococcus mutans, Actinomyces viscosus and Fusobacterium nucleatum, using method described in the study design.
(§7) Minimum Inhibitory Concentration (MIC) of honokiol alone and in combination with the above mentioned chalcone compound was performed against Streptococcus mutans, Actinomyces viscosus and Fusobacterium nucleatum, using method described in the study design.

[4] = system: Streptococcus mutans; experiment: as above; type: cell-based; conditions: S. mutans
Excerpt: as §2, §3, §4, §5, §6, §7

[5] = system: Fusobacterium nucleatum; experiment: as above; type: cell-based; conditions: F. nucleatum
Excerpt: as §2, §3, §4, §5, §6, §7

[6] = system: A. viscosus; experiment: MIC assay using A. viscosus as reference organism (96-well, OD610); type: cell-based; conditions: Actinomyces viscosus, compound alone, 0.5x TSB, overnight 37° C.
Procedure: as §1

[7] = system: Staphylococcus aureus 1199B (NorA overexpressing); experiment: Checkerboard MIC of ciprofloxacin alone and in combination with chalcone; type: cell-based; conditions: for MIC: Staphylococcus aureus
[8] = system: Staphylococcus aureus ATCC 29213; experiment: Systemic infection model of mice, ED50 of ciprofloxacin; type: in vivo, Swiss albino mice; conditions: ATCC29213, iv, after seven days of observation
Procedure: Efficacy testing will be done using standard procedures. Primary efficacy evaluation may be done using the murine septicemia model (Yun et al. Journal of Antimicrob. Chemother., 2002, 46: 3071-3074). In this model a supra-lethal dose of bacteria is used to challenge the rodents. Treatment is initiated, varying either or both time(s) of treatment and dose of antibiotic. In these experiments both the antibiotic and the efflux pump inhibitor doses are varied.
The study was conducted to see the in vivo response of ciprofloxacin in combination with the above-mentioned efflux pump inhibitor. The Swiss albino mice were infected intravenously with Staphylococcus aureus ATCC 29213 (10^7 CFU/mouse). The infected mice were divided in groups and each group consisted of 6 mice. The treatment consisted of one dose immediately after the infection followed by the next dose after a gap of 6 hrs. The result was recorded as number of survivals each day.

[9] = system: Staphylococcus aureus SA-K2191 (MsrA overexpressing); experiment: Checkerboard MIC of erythromycin alone and in combination with chalcone; type: cell-based; conditions: for MIC: Staphylococcus aureus
[10] = system: Staphylococcus aureus SA-K2192 (TetK overexpressing); experiment: Checkerboard MIC of tetracycline alone and in combination with chalcone; type: cell-based
[11] = Actinomyces viscosus, agent alone, read-out: MIC
[12] = Streptococcus mutans, agent alone, read-out: MIC
[13] = Fusobacterium nucleatum, agent alone, read-out: MIC
[14] = in combination with CK-4 at 50 μg/ml
[15] = in combination with CK-14 at 50 μg/ml

Compound	BEC50 alone [1]	BEC50 with CK-4 [1]	reduction in MIC in combination with chalcone compound [2]	MIC ([3]; with CK-4 6.25 μg/ml)	MIC ([3]; with CK-4 12.5 μg/ml)	MIC ([3]; with CK-4 25 μg/ml)	MIC [3, 11]	MIC ([4]; with CK-4 6.25 μg/ml)	MIC ([4]; with CK-4 12.5 μg/ml)	MIC ([4]; with CK-4 25 μg/ml)	MIC [4, 12]	MIC ([5]; with CK-4 6.25 μg/ml)	MIC ([5]; with CK-4 12.5 μg/ml)	MIC ([5]; with CK-4 25 μg/ml)	MIC [5, 13]	further results
CCCCc1ccc(O)c(-c2cc(CCCC)ccc2O)c1 [Butyl magnolol, 5,5′-dibutylbiphenyl-2,2′-diol]	0.65	0.24	Two to four-fold	4.0 µg/mL	2.0 µg/mL	1.0 µg/mL	4 µg/mL	4.0 µg/mL	2.0 µg/mL	1.0 µg/mL	4 µg/mL	2.0 µg/mL	2.0 µg/mL	1.0 µg/mL	2 µg/mL	
COc1cc(/C=C/C(=O)c2ccccc2)ccc1O [CK-4, 3-(4′-Hydroxy-3′-methoxy-phenyl)-1-phenyl-prop-2-ene-1-one]																MIC [6]: > 100 µg/mL
C=CCc1ccc(O)c(-c2ccc(O)c(CC=C)c2)c1 [Honokiol, honokiol]	5.21	2.60	Four to eight-fold	2.0 µg/mL	1.0 µg/mL	0.5 µg/mL	4 µg/mL	2.0 µg/mL	1.0 µg/mL	0.5 µg/mL	4 µg/mL	1.0 µg/mL	1.0 µg/mL	0.5 µg/mL	2 µg/mL	
C=CCc1ccc(O)c(-c2cc(CC=C)ccc2O)c1 [Magnolol, magnolol]	3.91	1.95	Up to sixteen-fold	1.0 µg/mL	0.5 µg/mL	0.25 µg/mL	4 µg/mL	2.0 µg/mL	1.0 µg/mL	0.5 µg/mL	4 µg/mL	1.0 µg/mL	1.0 µg/mL	0.5 µg/mL	2 µg/mL	
CCCc1ccc(O)c(-c2ccc(O)c(CCC)c2)c1 [Propyl Honokiol, propyl honokiol]	0.49	0.65														
Oc1cc(Cl)ccc1Oc1ccc(Cl)cc1Cl [Triclosan, triclosan]	1.95	0.98	Four to eight-fold	2.0 µg/mL	1.0 µg/mL	0.5 µg/mL	4 µg/mL	2.0 µg/mL	1.0 µg/mL	0.5 µg/mL	4 µg/mL	1.0 µg/mL	1.0 µg/mL	0.5 µg/mL	2 µg/mL	MIC [6]: 3.5 µg/mL (≈ 12.1 µM)
O=C([O-])CC(O)(CC(=O)[O-])C(=O)[O-].O=C([O-])CC(O)(CC(=O)[O-])C(=O)[O-].[Zn+2].[Zn+2].[Zn+2] [Zinc Citrate]	41.67	20.83														
O=C(O)c1cn(C2CC2)c2cc(N3CCNCC3)c(F)cc2c1=O [ciprofloxacin]																MIC ([7]; read-out: MIC (μg/ml) of ciprofloxacin for Staphylococcus aureus 1199B, ciprofloxacin alone): 8 µg/mL; MIC ([7]; read-out: MIC (μg/ml) of ciprofloxacin for Staphylococcus aureus 1199B, in combination with CK-4 6.25 μg/ml): 4 µg/mL; MIC ([7]; read-out: MIC (μg/ml) of ciprofloxacin for Staphylococcus aureus 1199B, in combination with CK-4 12.5 μg/ml): 2 µg/mL; MIC ([7]; read-out: MIC (μg/ml) of ciprofloxacin for Staphylococcus aureus 1199B, in combination with CK-4 25.0 μg/ml): 1 µg/mL; MIC ([7]; read-out: MIC (μg/ml) of ciprofloxacin for Staphylococcus aureus 1199B, in combination with CK-4 50.0 μg/ml): 0.5 µg/mL; reduction in MIC of ciprofloxacin [7, 14]: Up to sixteen-fold; reduction in MIC of ciprofloxacin [7, 15]: Up to eight-fold; ED50 ([8]; ciprofloxacin alone, mice infected i.v. with S. aureus ATCC 29213, two doses 6 hrs apart): 9.2 mg/kg; ED50 ([8]; in combination with the CK-4, mice infected i.v. with S. aureus ATCC 29213, two doses 6 hrs apart): 5.86 mg/kg
CC[C@H]1OC(=O)[C@H](C)[C@@H](O[C@H]2C[C@@](C)(OC)[C@@H](O)[C@H](C)O2)[C@H](C)[C@@H](O[C@@H]2O[C@H](C)C[C@H](N(C)C)[C@H]2O)[C@](C)(O)C[C@@H](C)C(=O)[C@H](C)[C@@H](O)[C@]1(C)O [erythromycin]																MIC ([9]; read-out: MIC (μg/ml) of erythromycin for Staphylococcus aureus SA-K2191, erythromycin alone): 64 µg/mL; MIC ([9]; read-out: MIC (μg/ml) of erythromycin for Staphylococcus aureus SA-K2191, in combination with CK-4 6.25 μg/ml): 64 µg/mL; MIC ([9]; read-out: MIC (μg/ml) of erythromycin for Staphylococcus aureus SA-K2191, in combination with CK-4 12.5 μg/ml): 32 µg/mL; MIC ([9]; read-out: MIC (μg/ml) of erythromycin for Staphylococcus aureus SA-K2191, in combination with CK-4 25.0 μg/ml): 16 µg/mL; MIC ([9]; read-out: MIC (μg/ml) of erythromycin for Staphylococcus aureus SA-K2191, in combination with CK-4 50.0 μg/ml): 8 µg/mL; reduction in MIC of erythromycin [9, 14]: Up to eight-fold; reduction in MIC of erythromycin [9, 15]: Up to four-fold
CN(C)[C@@H]1C(O)=C(C(N)=O)C(=O)[C@@]2(O)C(O)=C3C(=O)c4c(O)cccc4[C@@](C)(O)[C@H]3C[C@@H]12 [tetracycline]																MIC ([10]; read-out: MIC (μg/ml) of tetracycline for Staphylococcus aureus SA-K2192, in combination with CK-4 6.25 μg/ml): 32 µg/mL; MIC ([10]; read-out: MIC (μg/ml) of tetracycline for Staphylococcus aureus SA-K2192, in combination with CK-4 12.5 μg/ml): 16 µg/mL; MIC ([10]; read-out: MIC (μg/ml) of tetracycline for Staphylococcus aureus SA-K2192, in combination with CK-4 25.0 μg/ml): 8 µg/mL; MIC ([10]; read-out: MIC (μg/ml) of tetracycline for Staphylococcus aureus SA-K2192, in combination with CK-4 50.0 μg/ml): 4 µg/mL; MIC ([10]; read-out: MIC (μg/ml) of tetracycline for Staphylococcus aureus SA-K2192, tetracycline alone): 32 µg/mL
Catechin	26.04	26.04														
